Common to all, as to format: in vivo
Data set [1] concerns barnyard grass (Echinochloa crus-galli Beauv.). As to the kind of experiment: Test Example 1: herbicidal effect on paddy field weeds before emergence. To be noted: Dosage 5 kg/ha. Here is the method: (§1) Test for Herbicidal Effect on Paddy Field Weeds Before Emergence Soil was filled into 1/10000 are pots and brought into a state of paddy field, in which seeds of barnyard grass (Echinochloa crus-galli Beauv.) and bulrush (Scirpus juncoides Roxb.) were made to be before germination. The soil in the pots were treated with a solution containing a predetermined dosage of a chemical agent comprising a compound of the present invention listed in Tables 1 to 14. Twenty one days after the treatment, the herbicidal effect was investigated, the result was compared with that in untreated plot to calculate the weed-controlling rate, and the herbicidal effect was judged according to the following criterion: […]

Data set [2] concerns bulrush (Scirpus juncoides Roxb.). The description is as above. To be noted: Dosage 5 kg/ha. Here is the method: as §1
In data set [3] the test system is barnyard grass (Echinochloa crus-galli Beauv.). As to the kind of experiment: Test Example 2: herbicidal effect on paddy field weeds after emergence. To be noted: Dosage 5 kg/ha; one-leaved stage; 21 days after treatment. Here is the method: (§2) Test for Herbicidal Effect on Paddy Field Weeds After Emergence. Soil was filled into 1/10000 are pots and brought into a state of paddy field, in which seeds of barnyard grass (Echinochloa crus-galli Beauv.), bulrush (Scirpus juncoides Roxb.) and monochoria (Monochoria vaginalis Presl) were made to reach one-leaved stage. The soil in the pots were treated with a solution containing a predetermined dosage of a chemical agent comprising a compound of the present invention listed in Tables 1 to 14. Twenty one days after the treatment, the herbicidal effect was investigated and the result was compared with that in untreated plot to calculate the weed-controlling rate, and the herbicidal effect was judged according to the same criterion as in Test Example 1.

Data set [4] has as its system bulrush (Scirpus juncoides Roxb.). Described as above. To be noted: Dosage 5 kg/ha; one-leaved stage; 21 days after treatment. Here is the method:
as §2

In data set [5] the test system is monochoria (Monochoria vaginalis Presl). The description is as above. To be noted: Dosage 5 kg/ha; one-leaved stage; 21 days after treatment. Here is the method:
as §2

In data set [6] the test system is barnyard grass (Echinochloa crus-galli Beauv.), Ec. The data set is described as follows: Test Example 3: herbicidal effect on upland weeds before emergence. To be noted: dosage 5 kg/ha. Here is the method: (§3) Herbicidal Effect on Upland Weeds Before Emergence […] Then, a liquid preparation of an agent comprising a prescribed concentration of a compound of the present invention (the compounds listed in Tables 1-14) as active ingredient was sprayed. Fourteen days after the treatment, the herbicidal effect was investigated, from which weed-killing rate was calculated in the same manner as in Test Example 1, and the herbicidal effect was judged.

Data set [7] relates to bird's eye speedwell (Veronica persica Poir.), Vp. Described as above. To be noted: dosage 5 kg/ha. On the procedure:
as §3

The test system of data set [8] is cleavers (Galium aparine L.), Ga. Described as above. To be noted: dosage 5 kg/ha. On the procedure:
as §3

Data set [9] relates to cocklebur (Xanthium strumarium L.), Xs. The data set is described as above. To be noted: dosage 5 kg/ha. Here is the method:
as §3

The subject of data set [10] is forxtail grass (Alopecurus aequalis var. amurensis Ohwi), Am. The description is as above. To be noted: foxtail grass, dosage 5 kg/ha. On the procedure: as §3
For data set [11], the system named is velvetleaf (Abutilon theophtasti L.), At. The data set is described as above. To be noted: dosage 5 kg/ha. On the procedure:
as §3

The test system of the next data set is soybean plant (So). As to the kind of experiment: Test Example 3: phytotoxicity to upland crop plants, treatment before emergence. To be noted: dosage 5 kg/ha. On the procedure:
(§4) Herbicidal Effect on Upland Weeds Before Emergence […] Then, a liquid preparation of an agent comprising a prescribed concentration of a compound of the present invention (the compounds listed in Tables 1-14) as active ingredient was sprayed. Fourteen days after the treatment, the herbicidal effect was investigated, from which weed-killing rate was calculated in the same manner as in Test Example 1, and the herbicidal effect was judged. At the same time, phytotoxicity to soybean plant and wheat was investigated and judged according to the criterion mentioned below.

A further data set has as its system wheat (Wh). The description is as above. To be noted: dosage 5 kg/ha. On the procedure:
as §4

Data set [12] relates to barnyard grass (Echinochloa crus-galli Beauv.), Ec. The data set is described as follows: Test Example 4: herbicidal effect on upland weeds after emergence. To be noted: dosage 5 kg/ha; sprayed after emergence; judged 14 days after treatment. An excerpt:
(§5) Herbicidal Effect on Upland Weeds After Emergence Polyethylene-made vats having a size of 10 cm (length)×20 cm (width)×5 cm (height) were filled with soil, sown with seeds of the following noxious upland weeds and with seeds of soybean plant and wheat as upland crop plants, and then covered with soil. The plants were made to grow up until they reached the leaf-stages mentioned below, after which an agent comprising a prescribed concentration of a compound of the present invention (listed in Tables 1 to 14) as active ingredient was sprayed. Fourteen days after the treatment, the herbicidal effect was investigated, from which weed-killing rate was calculated in the same manner as in Test Example 1 and the results were judged. […] Sample weeds, their leaf stages, and leaf stages of soybean plant and wheat were as follows: [table]

In data set [13] the test system is bird's eye speedwell (Veronica persica Poir.), Vp. The data set is described as above. To be noted: dosage 5 kg/ha; sprayed after emergence; judged 14 days after treatment.
Source text: as §5

In data set [14] the test system is cleavers (Galium aparine L.), Ga. Described as above. To be noted: dosage 5 kg/ha; sprayed after emergence; judged 14 days after treatment.
Source text: as §5

Data set [15] deals with cocklebur (Xanthium strumarium L.), Xs. Described as above. To be noted: dosage 5 kg/ha; sprayed after emergence; judged 14 days after treatment.
Source text: as §5

Data set [16] deals with forxtail grass (Alopecurus aequalis var. amurensis Ohwi), Am. The data set is described as above. To be noted: dosage 5 kg/ha; sprayed after emergence; judged 14 days after treatment.
Source text: as §5

Data set [17] relates to velvetleaf (Abutilon theophtasti L.), At. The data set is described as above. To be noted: dosage 5 kg/ha; sprayed after emergence; judged 14 days after treatment.
Source text: as §5

A further data set concerns soybean plant. The data set is described as follows: Test Example 4: phytotoxicity to upland crop plants, treatment after emergence. To be noted: dosage 5 kg/ha, sprayed after emergence, judged 14 days after treatment.
Source text: as §5

Another data set deals with wheat. Described as above. To be noted: dosage 5 kg/ha, sprayed after emergence, judged 14 days after treatment.
Source text: as §5

For the compound `CCc1ccc(Cl)c(CC)c1NC(=O)c1cc2ccccc2nc1C(=O)NCC(C)(C)C` [359-5], the “Pre-emergence treatment Barnyard grass (herbicidal effect)” value (shortened to “Pre-emergence treatment Barnyard grass”) in data set [1] is given as 5 (Weed-killing rate is 100%.). For the same compound, the “Pre-emergence treatment Bulrush (herbicidal effect)” value (shortened to “Pre-emergence treatment Bulrush”) in [2] is 5 (Weed-killing rate is 100%.). Also, the “Post-emergence treatment Barnyard grass (herbicidal effect)” value (“Post-emergence treatment Barnyard grass” below) in data set [3] is on record as 5 (Weed-killing rate is 100%.). The “Post-emergence treatment Bulrush (herbicidal effect)” value (from here on “Post-emergence treatment Bulrush”) in data set [4] is reported as 5 (Weed-killing rate is 100%.). Further, the “Post-emergence treatment Monochoria (herbicidal effect)” value (“Post-emergence treatment Monochoria” below) in data set [5] is listed as 5 (Weed-killing rate is 100%.). For the same compound, the “Herbicidal effect Ec” value in data set [6] and in data set [12] was 5 (Weed-killing rate is 100%.) each time. Further, the “Herbicidal effect Vp” value in data set [7] and in data set [13] was 5 (Weed-killing rate is 100%.) throughout. In addition, the “Herbicidal effect Ga” value in [8] and in data set [14] was 5 (Weed-killing rate is 100%.) throughout. Also, the “Herbicidal effect Xs” value in [9] and in data set [15] was 5 (Weed-killing rate is 100%.) each time. Besides, the “Herbicidal effect Am” value in [10] and in data set [16] was 5 (Weed-killing rate is 100%.) each time. The “Herbicidal effect At” value in [11] and in [17] was 5 (Weed-killing rate is 100%.) in each case. Besides, the “Phytotoxicity So” value is on record as 0 (Crop-killing rate is 0-20% (No Phytotoxicity).) with soybean plant (So) and 2 (Crop-killing rate is 40-69%.) with soybean plant. The “Phytotoxicity Wh” value in the data set with wheat (Wh) is on record as 0 (Crop-killing rate is 0-20% (No Phytotoxicity).); in the data set on wheat, 3 (Crop-killing rate is 70-89%.).
As to `CCc1ccc(Cl)c(CC)c1NC(=O)c1cc2ccccc2nc1C(=O)NC1CCCC1` [359-6], the “Pre-emergence treatment Barnyard grass” value in data set [1] is given as 5 (Weed-killing rate is 100%.). In data set [2], the “Pre-emergence treatment Bulrush” value is on record as 5 (Weed-killing rate is 100%.). Also, the “Post-emergence treatment Barnyard grass” value in data set [3] was 5 (Weed-killing rate is 100%.). Besides, the “Post-emergence treatment Bulrush” value in [4] is 5 (Weed-killing rate is 100%.). The “Post-emergence treatment Monochoria” value in [5] is listed as 5 (Weed-killing rate is 100%.). The “Herbicidal effect Ec” value in data set [6] and in [12] was 5 (Weed-killing rate is 100%.) each time. Also, the “Herbicidal effect Vp” value in data set [7] and in data set [13] was 5 (Weed-killing rate is 100%.) each time. For the same compound, the “Herbicidal effect Ga” value in [8] and in data set [14] was 5 (Weed-killing rate is 100%.) throughout. The “Herbicidal effect Xs” value in data set [9] and in [15] was 5 (Weed-killing rate is 100%.) each time. Further, the “Herbicidal effect Am” value in data set [10] and in data set [16] was 5 (Weed-killing rate is 100%.) in each case. In addition, the “Herbicidal effect At” value in data set [11] and in data set [17] was 5 (Weed-killing rate is 100%.) each time. The “Phytotoxicity So” value in the data set on soybean plant (So) is on record as 0 (Crop-killing rate is 0-20% (No Phytotoxicity).); in the data set on soybean plant it was 3 (Crop-killing rate is 70-89%.). Further, the results for the “Phytotoxicity Wh” value with wheat (Wh) and in the data set on wheat were 0 (Crop-killing rate is 0-20% (No Phytotoxicity).) and 2 (Crop-killing rate is 40-69%.), respectively.
Consider `CCCNC(=O)c1nc2cc(F)ccc2cc1C(=O)Nc1c(CC)ccc(Cl)c1CC` [Compound No. 158, 3-(3-Chloro-2,6-diethylphenyl)-aminocarbonyl-7-fluoro-2-quinolinecarboxylic Acid n-Propylamide], for which the “Pre-emergence treatment Barnyard grass” value in data set [1] is recorded as 5 (Weed-killing rate is 100%.). Further, the “Pre-emergence treatment Bulrush” value in data set [2] is 5 (Weed-killing rate is 100%.). Moreover, the “Post-emergence treatment Barnyard grass” value in data set [3] is on record as 5 (Weed-killing rate is 100%.). In data set [4], the “Post-emergence treatment Bulrush” value is 5 (Weed-killing rate is 100%.). Further, in data set [5], the “Post-emergence treatment Monochoria” value is 5 (Weed-killing rate is 100%.). Moreover, the “Herbicidal effect Ec” value in [6] and in data set [12] was 5 (Weed-killing rate is 100%.) throughout. The “Herbicidal effect Vp” value in data set [7] and in data set [13] was 5 (Weed-killing rate is 100%.) each time. For the same compound, the “Herbicidal effect Ga” value in [8] and in data set [14] was 5 (Weed-killing rate is 100%.) in each case. For the same compound, the “Herbicidal effect Xs” value in data set [9] and in data set [15] was 4 (Weed-killing rate is 90-99%.) each time. For the same compound, the “Herbicidal effect Am” value in data set [10] and in [16] was 4 (Weed-killing rate is 90-99%.) each time. In addition, the “Herbicidal effect At” value in data set [11] and in data set [17] was 5 (Weed-killing rate is 100%.) each time. Also, the “Phytotoxicity So” value is 1 (Crop-killing rate is 1-39%.) in the data set with soybean plant (So) and 2 (Crop-killing rate is 40-69%.) in the data set on soybean plant. For the same compound, the “Phytotoxicity Wh” value in the data set on wheat (Wh) and in the data set with wheat was 4 (Crop-killing rate is 90-99%.) throughout.
`CCNC(=O)c1nc2ncccc2cc1C(=O)Nc1c(CC)ccc(Cl)c1CC` [Compound No. 360, 3-(3-Chloro-2,6-diethylphenyl)-aminocarbonyl-1,8-naphthylidine-2-carboxylic Acid Ethylamide]: in [1], the “Pre-emergence treatment Barnyard grass” value is 5 (Weed-killing rate is 100%.). The “Pre-emergence treatment Bulrush” value in data set [2] is 5 (Weed-killing rate is 100%.). In addition, the “Post-emergence treatment Barnyard grass” value in data set [3] is 5 (Weed-killing rate is 100%.). The “Post-emergence treatment Bulrush” value in [4] is listed as 5 (Weed-killing rate is 100%.). The “Post-emergence treatment Monochoria” value in data set [5] was 5 (Weed-killing rate is 100%.). Moreover, the “Herbicidal effect Ec” value in data set [6] and in data set [12] was 5 (Weed-killing rate is 100%.) each time. Further, the “Herbicidal effect Vp” value in [7] and in data set [13] was 5 (Weed-killing rate is 100%.) each time. Besides, the “Herbicidal effect Ga” value in [8] was 5 (Weed-killing rate is 100%.); in [14], 4 (Weed-killing rate is 90-99%.). Moreover, the “Herbicidal effect Xs” value in [9] and in [15] was 5 (Weed-killing rate is 100%.) throughout. The “Herbicidal effect Am” value in [10] and in data set [16] was 5 (Weed-killing rate is 100%.) throughout. Further, the “Herbicidal effect At” value in data set [11] and in [17] was 5 (Weed-killing rate is 100%.) each time. In addition, the “Phytotoxicity So” value in the data set on soybean plant (So) and with soybean plant was 3 (Crop-killing rate is 70-89%.) each time. Further, the “Phytotoxicity Wh” value in the data set on wheat (Wh) and in the data set on wheat was 4 (Crop-killing rate is 90-99%.) throughout.
